Measurements taken from patent publication US5215979A, “16,17-acetalsubstituted pregnane 21-oic acid derivatives” (priority 1985, dated 1993).
“And” between values parts separate entries of the source, which are not always exact repeats. Equal values may be shown once. Read-outs that look alike come from different tables or passages of the source.

What was measured:
[1] = cited from earlier work; for Plasma half life: after absorption of inhaled GCS; for Site of inactivation (in words): after absorption
[2] = system: interstitial lung edema; experiment: Sephadex model in the rat: lung edema after Sephadex bead instillation, glucocorticosteroid instilled in left lung lobe; type: in vivo, Sprague-Dawley rats; conditions: for ED50: Rattus norvegicus, read-out: ED50 left lung lobe (required glucocorticosteroid dose to reduce the edema by 50%); for Selectivity ratio ED50 right lung / ED50 left lung: instillation into left lung lobe, higher = more selective for application site
From the text: The selectivity for anti-inflammatory effect at the application site in the lung has been investigated in a model system in the rat after intrabronchial instillation of the glucocorticosteroid.
Instillation of Sephadex beads into rat lung leads to bronchial and alveolar inflammation. This provokes interstitial lung edema, which increases the lung weight and the inflammation can be graded as the increase of the lung weight compared to a vehicle-instilled control group. The lung edema formation can be counteracted by pretreatment with glucocorticosteroids, preferably the local administration as intrabronchial installation or as inhalation. Ideally, an anti-inflammatory action should be obtained only at the site of glucocorticosteroid application in the lung but not outside this area, as this in long term treatment can lead to therapy limiting systemic side effects.
(§1) The differentiation between glucocorticosteroid action in the treated lung region and outside this area has been tested by the following test protocol. Sprague-Dawley rats (225 g) were slightly anesthetized with ether and the glucocorticosteroid test preparation in a volume of 0.5 ml/kg was instilled into just the left lung lobe. […] Thirty minutes later, a suspension of Sephadex (5 mg/kg in a volume of 1 ml/kg) was instilled in the trachea well above the bifurcation so that the suspension reached both the left and right lung lobes. Twenty hours later the rats were killed and the left and right lung lobes were dissected out and weighed separately. Also the thymus weight was recorded. Control groups got vehicle instead of glucocorticosteroid preparation and saline instead of Sephadex suspension to determine the weight of non-drug protected Sephadex edema and the normal lung weight, respectively. For each glucocorticosteroid preparation at least 3 doses within the range 0.01-10 mg/kg and with each ≥6 parallels/dose were tested. The glucocorticosteroids were suspended in a vehicle of CMC-Na 0.75%, Tween 80 0.04%, and 0.7% NaCl ad 100%.
For a strict local anti-inflammatory treatment of airway diseases the ideal profile of a compound is that it should counteract the inflammation in the locally treated left lung lobe, but not in the right lung half, which is anticipated to be reached by glucocorticosteroid first via the systemic circulation (after absorption from the left lung). The ratio between the required ED50 's (doses reducing the edema by 50%) in the right and left lung halves, respectively, can be used as a parameter for estimation of the selective activity for the application site. For an ideal glucocorticosteroid this selectivity ratio should be high.

[3] = compared with budesonide or BDP; cited from earlier work
[4] = system: thymus; experiment: Thymus weight recorded in the Sephadex model (systemic effect); type: in vivo, Sprague-Dawley rats; conditions: for Thymus involution % (dose mg/kg): relative to Sephadex control group
Procedure: as §1

[5] = cited from earlier work; for Unwanted GCS actions within the general circulation (in words): highest of the recommended doses for inhalation; for Safety margin (in words): inhaled GCS, highest recommended doses for inhalation
[6] = in vivo; cited from earlier work
[7] = intrabronchial instillation into left lung lobe 30 min before Sephadex, lungs weighed 20 h later

Structure (SMILES) | Selectivity ratio ED50 right lung / ED50 left lung [2] | Thymus involution % (dose mg/kg) ([4]; dose 10 mg/kg) [%] | ED50 [2, 7] [mg/kg] | further results
CCCCOC(=O)C(=O)[C@H]1[C@H](C)C[C@H]2[C@@H]3C[C@H](F)C4=CC(=O)C=C[C@]4(C)[C@H]3[C@@H](O)C[C@@]21C [FCB, fluocortin butyl ester] | 2-3 and 2.5 | 6 |  | Half life time in plasma (in words) ([1]; compared with budesonide): as long half life time in plasma as budesonide; ED50 ([2]; 20 h): 10 mg/kg; Potency (in words) [3]: lower potency
CCC[C@@H]1O[C@@H]2C[C@H]3[C@@H]4C[C@H](F)C5=CC(=O)C=C[C@]5(C)[C@@]4(F)[C@@H](O)C[C@]3(C)[C@]2(C(=O)C(=O)OC(C)C)O1 [Example 5, isopropyl (22R)-16α,17α-butylidenedioxy-6α,9α-difluoro-11β-hydroxy-3, 20-dioxopregna-1,4-diene-21-oate] | 10.0 | -1 | 5 | Effect on thymus weight (in words) ([4]; dose 10 mg/kg): do not at all affect the thymus weight
CCCOC(=O)C(=O)[C@@]12O[C@H](CCC)O[C@@H]1C[C@H]1[C@@H]3C[C@H](F)C4=CC(=O)C=C[C@]4(C)[C@@]3(F)[C@@H](O)C[C@@]12C [Example 4, n-propyl (22R)-16α,17α-butylidenedioxy-6α,9α-difluoro-11β-hydroxy-3, 20-dioxopregna-1,4-diene-21-oate] | > 10 | 6 | < 1 | 
CCC[C@@H]1O[C@@H]2C[C@H]3[C@@H]4C[C@H](F)C5=CC(=O)C=C[C@]5(C)[C@@]4(F)[C@@H](O)C[C@]3(C)[C@]2(C(=O)C(=O)OC)O1 [Example 1, methyl (22R)-16α,17α-butylidenedioxy-6α, 9α-difluoro-11β-hydroxy-3,20-dioxopregna-1,4-diene-21-oate] | 6.0 | -3 | 1.5 | Effect on thymus weight (in words) ([4]; dose 10 mg/kg): do not at all affect the thymus weight
CCC[C@@H]1O[C@@H]2C[C@H]3[C@@H]4C[C@H](F)C5=CC(=O)C=C[C@]5(C)[C@@]4(F)[C@@H](O)C[C@]3(C)[C@]2(C(=O)C(=O)OCC)O1 [Example 3, ethyl (22R)-16α,17α-butylidenedioxy-6α,9α-difluoro-11β-hydroxy-3, 20-dioxopregna-1,4-diene-21-oate] | 5.9 | 15 | 1.7 | 
CCCC1O[C@@H]2C[C@H]3[C@@H]4CCC5=CC(=O)C=C[C@]5(C)[C@H]4[C@@H](O)C[C@]3(C)[C@]2(C(=O)CO)O1 (some centres unmarked) [Budesonide] | ~ 1.5 and 1.4 |  | 0.2 | Plasma half life [1]: ≥ 2 h; Site of inactivation (in words) [1]: inactivated mainly in the liver; Selectivity for activity in the locally treated left lung lobe (in words) ([2]; compared with budesonide and FCB): does not reach any selectivity for the application site in lung; Thymus involution % (dose mg/kg) ([4]; dose 0.3 mg/kg): 22%; Unwanted GCS actions within the general circulation (in words) [5]: unwanted GCS actions within the general circulation have been reported; Safety margin (in words) [5]: rather narrow safety margin; Selectivity for the application within airways (in words) [6]: low selectivity
CCC(=O)OCC(=O)[C@@]1(OC(=O)CC)[C@@H](C)C[C@H]2[C@@H]3CCC4=CC(=O)C=C[C@]4(C)[C@@]3(Cl)[C@@H](O)C[C@@]21C [beclomethasone 17α, 21-dipropionate] |  |  |  | Plasma half life [1]: ≥ 2 h; Site of inactivation (in words) [1]: inactivated mainly in the liver; Unwanted GCS actions within the general circulation (in words) [5]: unwanted GCS actions within the general circulation have been reported; Safety margin (in words) [5]: rather narrow safety margin
